Experimental data from patent publication US20190350940A1, “PLATINUM COMPOUNDS, COMPOSITIONS, AND USES THEREOF” (priority 2015, published 2019).
Where “and” joins values, the source holds several entries; their conditions need not be identical. Equal values may be shown once. Entries after “also recorded” stand apart in the source; their conditions may differ.

How the values were obtained:
rat plasma = assay: In vitro plasma protein binding, rat plasma (Compound 8-DMPK-008); type: in vitro ADME; conditions: incubation 10 minutes at 37° C.
Calu-6 human NSCLC = assay: Calu-6 lung xenograft model; type: in vivo, mouse; conditions: mouse, in vivo
Procedure: The effect of Compound 8 was evaluated in the Calu-6 human NSCLC nude mouse (female Crl:NU(NCr)-Foxn1^nu) xenograft model.

[1] = Single dose intravenous dose range-finding toxicity study in male rats (Compound 8-TX-001); type: in vivo; conditions: male, rat, in vivo, iv, single IV dose, male rats, N=3 per group; read-out: MTD and STD10
Procedure: (§1) This study (Compound 8-TX-001) was designed as a dose range finding study to support the dose selection for the repeat-dose IV toxicity GLP study in rats (Compound 8-TX-007).
(§2) The test article, Compound 8, was formulated prior to dosing as a solution in 5 mM citrate buffered saline (0.9% sodium chloride), pH about 4-4.5, at nominal concentrations of 2.7, 1.4, 1.9, and 2.3 mg/mL. Compound 8 was administered via IV injection to groups of 3 animals each at doses of 27, 14, 19, and 23 mg/kg. Dose formulations were all within the acceptance criteria (±10% of target concentration) ranging from 98.8 to 106.2 percent of target concentration. Assessment of toxicity was based on mortality, clinical observations, body weight, and food consumption, and clinical and anatomic pathology.

male rats = assay: as above; type: in vivo; conditions: rat
Procedure: as §1, §2

[2] = pH stability: pH range screen in Britton Robinson buffer (Impurity 2 formation); type: physicochemical; conditions: 0.1 mg/ml in Britton Robinson buffer, room temperature
Procedure: It has been well established in the literature that the maleimide group is susceptible to a ring-opening product at physiological pH values. In order to determine the stability of Compound 8 at a range of pH values, a stock solution of 10 mg/ml Compound 8 in N,N-dimethylformamide (DMF) was spiked into a series of Britton Robinson buffers with pH set at values of 2, 4, 5, 6, 7.3, and 8 to make a final concentration of 0.1 mg/ml Compound 8. The amount of Impurity 2 (maleimide ring opening impurity) that was produced over the course of 24 hr at room temperature is shown in FIG. 1.

[3] = tested on: A2780 human ovarian cancer; assay: A2780 ovarian xenograft model; type: in vivo, mouse; conditions: mouse, in vivo, 20 mg/kg
Procedure: The effect of Compound 8 on tumor growth inhibition (TGI) was evaluated in the A2780 human ovarian cancer nude mouse (female Crl:NU(NCr)-Foxn1^nu) xenograft model.

female Beagle dogs = assay: Cardiovascular and respiratory effects in Beagle dogs (Compound 8-TX-005); type: in vivo, dog
Procedure: The cardiovascular and respiratory effects of Compound 8 administered IV were evaluated in Beagle dogs (Compound 8-TX-005).

[4] = Platinum pharmacokinetics/toxicokinetics in rat; conditions: in vivo
Procedure: Platinum in the plasma ultrafiltrate was considered free drug (non-protein bound), while the platinum in the plasma was a combination of protein bound and free drug.
Groups of 30 animals (15/sex) each received vehicle control or Compound 8 9, 14, 19, or 6 mg/kg. Groups of 20 animals (10/sex) received Compound 8 9, 14, 19, or 6 mg/kg and 6 animals (3/sex) received vehicle control in the TK portion of the study.

CYP2B6 = CYP2B6 (Homo sapiens, UniProt P20813); assay: CYP inhibition, 2B6; type: in vitro ADME
[5] = pH stability: buffering capacity (5 mM versus 100 mM citrate); type: physicochemical; conditions: 5 mM versus 100 mM citrate saline pH about 4; impurity profile over 10 hr
Procedure: In order to assess the effect of the buffering capacity, formulations were made with 5 mM and 100 mM citrate saline pH about 4. Two formulations were made in 100 mM citrate, one at 0.1 mg/ml and the other at 1 mg/ml. A third formulation of 5 mM citrate at 1 mg/ml was made for comparison to determine whether increasing the buffering capacity improved the stability of the formulation.

CYP2C19 = CYP2C19 (Homo sapiens, UniProt P33261); assay: CYP inhibition, 2C19; type: in vitro ADME
[6] = tested on: MIA Paca-2 human pancreatic adenocarcinoma; assay: MIA Paca-2 pancreatic xenograft model; type: in vivo, mouse; conditions: mouse, in vivo, 10 mg/kg
[7] = Single dose intravenous dose range-finding toxicity study in Beagle dogs (Compound 8-TX-002); type: in vivo, dog; conditions: both sexes, Beagle, in vivo; single IV dose, dog
Procedure: (§3) This study (Compound 8-TX-002) was conducted to evaluate and characterize the acute toxicity and to determine an MTD of Compound 8 when administered once via IV injection to the dog, and to assist in dose selection for a subsequent dog cardiovascular study (Compound 8-TX-005). The test article, Compound 8, was formulated prior to dosing, as a solution in 5 mM citrate buffered saline (0.9% sodium chloride), pH about 4-4.5 at nominal concentrations of 1.2, 2.4, 4.0, and 4.8 mg/mL. Dose formulations were all within the acceptance criteria (+10% of target concentration) ranging from 92.1 to 99.8 percent of target concentration.
(§4) Groups of 2 animals each (1 male, 1 female) received Compound 8 at doses of 3, 6, 10, or 12 mg/kg. Assessment of toxicity was based on mortality, clinical observations, body weight, and qualitative food assessment; physical examinations; and clinical pathology. Toxicokinetic assessment was conducted for platinum concentration in the plasma and plasma ultrafiltrate.

Beagle dogs = assay: as above; type: in vivo, dog
Procedure: as §3, §4

NCI-H520 human NSCLC = assay: NCI-H520 lung xenograft model; type: in vivo, mouse; conditions: mouse, in vivo
Procedure: The effect of Compound 8 also was evaluated in the NCI-H520 human NSCLC nude mouse (female CrTac:NCr-Foxn1^nu) xenograft model. […] All treatments were statistically significant compared to vehicle (p<0.0001).

Sequence of CYP2C19 (P33261 whole entry): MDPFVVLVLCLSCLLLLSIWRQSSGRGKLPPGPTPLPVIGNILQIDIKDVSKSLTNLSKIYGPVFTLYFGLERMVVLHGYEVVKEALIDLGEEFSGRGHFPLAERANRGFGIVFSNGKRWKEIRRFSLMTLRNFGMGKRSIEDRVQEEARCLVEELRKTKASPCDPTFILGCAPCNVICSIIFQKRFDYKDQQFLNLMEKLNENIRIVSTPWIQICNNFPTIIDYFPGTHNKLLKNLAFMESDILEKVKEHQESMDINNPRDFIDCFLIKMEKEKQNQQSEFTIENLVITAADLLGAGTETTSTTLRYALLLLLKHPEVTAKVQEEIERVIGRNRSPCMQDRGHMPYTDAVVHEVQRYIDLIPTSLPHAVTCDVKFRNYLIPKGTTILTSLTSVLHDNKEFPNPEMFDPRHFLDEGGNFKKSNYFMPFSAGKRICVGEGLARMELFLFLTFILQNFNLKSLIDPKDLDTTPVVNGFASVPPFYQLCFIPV
Sequence of CYP2B6 (P20813 whole entry): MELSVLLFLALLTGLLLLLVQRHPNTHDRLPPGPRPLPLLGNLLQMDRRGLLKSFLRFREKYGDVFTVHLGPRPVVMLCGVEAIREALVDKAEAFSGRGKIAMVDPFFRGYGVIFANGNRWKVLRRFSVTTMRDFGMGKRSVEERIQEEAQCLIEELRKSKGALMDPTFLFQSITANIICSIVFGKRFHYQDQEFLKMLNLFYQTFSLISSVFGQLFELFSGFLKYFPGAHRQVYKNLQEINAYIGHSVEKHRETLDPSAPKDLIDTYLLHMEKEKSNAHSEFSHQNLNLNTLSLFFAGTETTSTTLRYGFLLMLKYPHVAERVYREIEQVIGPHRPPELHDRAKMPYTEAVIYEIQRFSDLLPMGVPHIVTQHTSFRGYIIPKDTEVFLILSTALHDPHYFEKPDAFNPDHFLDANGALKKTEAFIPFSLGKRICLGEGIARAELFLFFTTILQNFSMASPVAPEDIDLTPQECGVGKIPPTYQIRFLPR

## CC(=O)[O][Pt]([NH2])([NH2])([Cl])([Cl])[O]C(=O)NCCCCCN1C(=O)C=CC1=O [Compound 8]
Rat plasma
  Protein bound: > 99%
Calu-6 human NSCLC; 10 mg/kg
  Mean maximal BW loss: 0.9%
Calu-6 human NSCLC; 15 mg/kg
  Mean maximal BW loss: 3.2%
[1]
  MTD: 19 mg/kg
Male rats; in vivo, 14 mg/kg
  Renal function and renal injury: Evidence of reduced renal function and renal injury
Male rats; in vivo, 19 mg/kg
  Inflammatory response (leukocytes, neutrophils, monocytes, lymphocytes): Evidence of an inflammatory response
Male rats; in vivo, 23 mg/kg
  Body weight: Decreases in body weight were noted throughout the study
Male rats; single IV dose, corresponds to 19 mg/kg
  MTD and STD10 (MTD dose): 122 mg/m^2 and 120 (MTD*) mg/m^2 and 120 (MTD^1) mg/m^2
[2]; pH 5, 4 hr
  Impurity 2 (maleimide ring opening impurity) formation: not detected
[2]; pH 6, within 1 hr
  Impurity 2 (maleimide ring opening impurity) formation: not detected
[2]; pH values below 4, up to 24 hr
  Impurity 2 (maleimide ring opening impurity) formation: not produced
[3]
  Mean maximal BW loss: 7.4%
Female Beagle dogs; 6 and 10 mg/kg, between 6 and 12 hours following treatment
  Increases in blood pressure (slight, non-dose-dependent): 9-16 % above controls
Female Beagle dogs; IV, female Beagle dogs
  Doses with no observable adverse effects on cardiovascular or pulmonary function: ≤ 10 mg/kg
  Doses with no observable adverse effects on cardiovascular or pulmonary function, as HED: ≤ 200 mg/m^2
Female Beagle dogs; all animals, approximately 24 hours post-dose
  Test article-related clinical observations: observations of vomitus
Female Beagle dogs; single IV injection 6 and 10 mg/kg, female Beagle dogs
  Mortality, body temperature, heart rate, ECG parameters (PR, RR, QRS, QT, QTc), respiratory rate: did not produce mortality or changes
[4]; both
  Ultrafiltrate levels as share of the total platinum levels: approximately 1%
[4]; 19 mg/kg
  RBC platinum concentrations, Day 21 relative to Day 1: did not result in significant accumulation of platinum in the RBCs
CYP2B6
  IC50: 582 nM
[5]
  Effect of buffering capacity on stability: little effect
CYP2C19
  IC50: 2720 nM
[6]
  Mean maximal BW loss: 3.7%
  Treatment-related adverse effects: No treatment-related adverse effects
[7]
  MTD: 10 mg/kg
Beagle dogs; 12 mg/kg animals
  Decrease in body weight: exceeded 10%
Beagle dogs; 3, 6, 10, 12 mg/kg
  Chemistry, coagulation, or urinalysis parameters: no definitive effects
Beagle dogs; both sexes, all groups (3, 6, 10, 12 mg/kg)
  Hematology parameters: decreases in reticulocytes, red cell mass, neutrophils and platelets
Beagle dogs; single IV dose, dog, corresponds to 10 mg/kg
  MTD: 200 mg/m^2 and 205 (MTD) mg/m^2
Beagle dogs; up to 12 mg/kg (240 mg/m^2)
  Mortality and treatment-related clinical observations: no mortalities or treatment related clinical observations; also recorded: no mortalities
NCI-H520 human NSCLC; 10 mg/kg
  Mean maximal BW loss: 2.7%
NCI-H520 human NSCLC; 15 mg/kg
  Mean maximal BW loss: 11%
